Several values for one entry are separate records, joined by “and”; a condition that tells them apart may be missing. Identical values can stand only once. Inconclusive results and toxic doses are left out.
Tested on: BDF1 mice, P388 leukemia ip, median survival T/C
Assay: NCI In Vivo Anticancer Drug Screen. Data for tumor model P388 Leukemia (intraperitoneal) in B6D2F1 (BDF1) mice
Details: endpoint: median survival time, higher = longer survival
Procedure, shortened: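 Each value expresses how treatment altered survival: treated-mouse outcome over vehicle-mouse outcome, both groups bearing the transplanted tumour.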

[1] = dose: 6.25 mg/kg/injection, schedule: Q01DX009 (ip), vehicle: saline
[2] = dose: 12.5 mg/kg/injection, schedule: Q01DX009 (ip), vehicle: saline
[3] = dose: 25.0 mg/kg/injection, schedule: Q01DX009 (ip), vehicle: saline
[4] = dose: 25.0 mg/kg/injection, schedule: Q01DX009 (ip), vehicle: Klucel (hydroxypropylcellulose) (HPC)
[5] = dose: 50.0 mg/kg/injection, schedule: Q01DX009 (ip), vehicle: Klucel (hydroxypropylcellulose) (HPC)
[6] = dose: 100.0 mg/kg/injection, schedule: Q01DX009 (ip), vehicle: Klucel (hydroxypropylcellulose) (HPC)
[7] = dose: 200.0 mg/kg/injection, schedule: Q01DX009 (ip), vehicle: Klucel (hydroxypropylcellulose) (HPC)
[8] = dose: 100.0 mg/kg/injection, schedule: Q01DX009 (ip), vehicle: saline
[9] = dose: 100.0 mg/kg/injection, schedule: Q04DX003 (ip), vehicle: saline
[10] = dose: 200.0 mg/kg/injection, schedule: Q01DX009 (ip), vehicle: saline
[11] = dose: 200.0 mg/kg/injection, schedule: Q04DX003 (ip), vehicle: saline
[12] = dose: 400.0 mg/kg/injection, schedule: Q01DX009 (ip), vehicle: saline
[13] = dose: 50.0 mg/kg/injection, schedule: Q04DX003 (ip), vehicle: saline
[14] = dose: 50.0 mg/kg/injection, schedule: Q01DX009 (ip), vehicle: saline
[15] = dose: 100.0 mg/kg/injection, schedule: Q04DX003 (ip), vehicle: Klucel (hydroxypropylcellulose) (HPC)
[16] = dose: 200.0 mg/kg/injection, schedule: Q04DX003 (ip), vehicle: Klucel (hydroxypropylcellulose) (HPC)
[17] = dose: 400.0 mg/kg/injection, schedule: Q04DX003 (ip), vehicle: Klucel (hydroxypropylcellulose) (HPC)

Question: How did the T/C (dose: 2.2 mg/kg/injection, schedule: Q01DX009 (ip), vehicle: saline) turn out when `O=P(N1CC=CCC1)(N1CC1)N1CC1` was run?
Answer: 115 % of control

Question: What about the T/C (dose: 3.3 mg/kg/injection, schedule: Q01DX009 (ip), vehicle: saline) of the same compound?
Answer: 105 % of control

Question: And the T/C (dose: 5.0 mg/kg/injection, schedule: Q01DX009 (ip), vehicle: saline)?
Answer: 161 % of control

Question: What about the T/C [1] of the same compound?
Answer: 190 % of control

Question: And the T/C (dose: 7.5 mg/kg/injection, schedule: Q01DX009 (ip), vehicle: saline)?
Answer: 195 % of control

Question: What about the T/C [2] of the same compound?
Answer: 245 % of control and 191 % of control

Question: What about the T/C [3] of the same compound?
Answer: 87 % of control and 90 % of control

Question: Which results are given for `C[C@]12CC[C@H]3[C@@H](CC[C@]4(O)C[C@@H](O)CC[C@]34C=O)[C@@]1(O)CC[C@@H]2C1=CC(=O)OC1`?
Answer: T/C (dose: 12.5 mg/kg/injection, schedule: Q01DX009 (ip), vehicle: Klucel (hydroxypropylcellulose) (HPC)): 105 % of control; T/C [4]: 95 % of control; T/C (dose: 25.0 mg/kg/injection, schedule: Q01DX010 (ip), vehicle: carboxymethylcellulose (CMC)): 100 % of control; T/C [5]: 109 % of control and 115 % of control; T/C [6]: 100 % of control; T/C (dose: 100.0 mg/kg/injection, schedule: Q01DX010 (ip), vehicle: carboxymethylcellulose (CMC)): 105 % of control; T/C [7]: 100 % of control; T/C (dose: 200.0 mg/kg/injection, schedule: Q01DX010 (ip), vehicle: carboxymethylcellulose (CMC)): 105 % of control

Question: How did the T/C (dose: 3.13 mg/kg/injection, schedule: Q01DX001 (ip), vehicle: saline with Tween-80) turn out when `O=C1C(Cl)=C(Cl)C(=O)C2CC=CCC12` (stereo unspecified) was run?
Answer: 95 % of control

Question: And the T/C (dose: 6.25 mg/kg/injection, schedule: Q01DX001 (ip), vehicle: saline with Tween-80)?
Answer: 114 % of control

Question: How did the T/C [5] turn out when `COc1cc(N)c2ncsc2c1[N+](=O)[O-]` was run?
Answer: 89 % of control

Question: And the T/C [6]?
Answer: 105 % of control

Question: What about the T/C [7] of the same compound?
Answer: 106 % of control

Question: With `Cc1c2oc3c(C)ccc(C(=O)NCCc4ccco4)c3nc-2c(C(=O)NCCc2ccco2)c(N)c1=O` as the compound, how does the T/C (dose: 100.0 mg/kg/injection, schedule: Q04DX003 (ip), vehicle: saline with Tween-80) read?
Answer: 102 % of control

Question: And the T/C (dose: 200.0 mg/kg/injection, schedule: Q04DX003 (ip), vehicle: saline with Tween-80)?
Answer: 99 % of control

Question: What about the T/C (dose: 400.0 mg/kg/injection, schedule: Q04DX003 (ip), vehicle: saline with Tween-80) of the same compound?
Answer: 96 % of control

Question: What does the source list for `O=S(=O)(O)c1ccc(Br)cc1`?
Answer: T/C [8]: 92 % of control; T/C [9]: 115 % of control; T/C [10]: 107 % of control; T/C [11]: 110 % of control; T/C [12]: 100 % of control; T/C (dose: 400.0 mg/kg/injection, schedule: Q04DX003 (ip), vehicle: saline): 115 % of control

Question: Which T/C (dose: 1.56 mg/kg/injection, schedule: Q01DX009 (ip), vehicle: saline) does the source give for `OCCOCCN1CCN(CCCN2c3ccccc3Sc3ccc(C(F)(F)F)cc32)CC1` here?
Answer: 109 % of control

Question: What about the T/C (dose: 12.5 mg/kg/injection, schedule: Q04DX003 (ip), vehicle: saline) of the same compound?
Answer: 113 % of control and 120 % of control

Question: What about the T/C [13] of the same compound?
Answer: 117 % of control

Question: How did the T/C [4] turn out when `COc1c(CO)c2c(c(OC)c1OC)-c1ccc(OC)c(=O)cc1[C@@H](NC(C)=O)CC2` was run?
Answer: 153 % of control

Question: And the T/C [5]?
Answer: 168 % of control

Question: Which results are given for `CN(C)CC/C=C1\c2ccccc2Sc2ccc(C(F)(F)F)cc21`?
Answer: T/C (dose: 9.2 mg/kg/injection, schedule: Q04DX003 (ip), vehicle: saline): 112 % of control and 113 % of control; T/C (dose: 21.0 mg/kg/injection, schedule: Q04DX003 (ip), vehicle: saline): 116 % of control; T/C (dose: 29.0 mg/kg/injection, schedule: Q04DX003 (ip), vehicle: saline): 100 % of control; T/C (dose: 65.0 mg/kg/injection, schedule: Q01DX001 (ip), vehicle: saline): 122 % of control

Question: `CCOC(=O)C1OC(n2cnc3c(N)ncnc32)C(O)C1O` (stereo unspecified) was tested. Which T/C [1] did it give?
Answer: 103 % of control

Question: And the T/C [2]?
Answer: 94 % of control

Question: What about the T/C [3] of the same compound?
Answer: 94 % of control

Question: What about the T/C [14] of the same compound?
Answer: 92 % of control

Question: For `Cc1cc(C)nc(NS(=O)(=O)c2ccc(NC(=O)C(Cl)(Cl)Cl)cc2)n1`, which T/C (dose: 100.0 mg/kg/injection, schedule: Q01DX005 (ip), vehicle: saline with Tween-80) is on record?
Answer: 93 % of control

Question: What about the T/C (dose: 200.0 mg/kg/injection, schedule: Q01DX005 (ip), vehicle: saline with Tween-80) of the same compound?
Answer: 88 % of control

Question: `CC(C)CC(C(=O)NC1C(=O)NC(Cc2c[nH]c3ccccc23)C(=O)N/C=C\c2ccc(cc2)OC1C(C)C)N(C)C` (stereo unspecified) was tested. Which T/C (dose: 0.1 mg/kg/injection, schedule: Q01DX010 (ip), vehicle: alcohol) did it give?
Answer: 100 % of control

Question: And the T/C (dose: 0.2 mg/kg/injection, schedule: Q01DX010 (ip), vehicle: alcohol)?
Answer: 101 % of control

Question: And the T/C (dose: 0.8 mg/kg/injection, schedule: Q01DX010 (ip), vehicle: alcohol)?
Answer: 123 % of control

Question: What about the T/C (dose: 1.0 mg/kg/injection, schedule: Q01DX009 (ip), vehicle: steriod suspending solution) of the same compound?
Answer: 110 % of control

Question: And the T/C (dose: 2.0 mg/kg/injection, schedule: Q01DX009 (ip), vehicle: steriod suspending solution)?
Answer: 115 % of control

Question: What about the T/C (dose: 4.0 mg/kg/injection, schedule: Q01DX009 (ip), vehicle: steriod suspending solution) of the same compound?
Answer: 105 % of control

Question: What about the T/C (dose: 8.0 mg/kg/injection, schedule: Q01DX009 (ip), vehicle: steriod suspending solution) of the same compound?
Answer: 100 % of control

Question: What does the source list for `CCCCCCCCCCCCCC/[N+]([O-])=C/c1ccc([N+](=O)[O-])o1`?
Answer: T/C (dose: 6.25 mg/kg/injection, schedule: Q04DX002 (ip), vehicle: saline with Tween-80): 91 % of control; T/C (dose: 12.5 mg/kg/injection, schedule: Q04DX002 (ip), vehicle: saline with Tween-80): 100 % of control; T/C (dose: 25.0 mg/kg/injection, schedule: Q04DX002 (ip), vehicle: saline with Tween-80): 87 % of control; T/C (dose: 200.0 mg/kg/injection, schedule: Q04DX002 (ip), vehicle: saline with Tween-80): 88 % of control

Question: For `CC(=N\O)/C(C)=N/O.CC(=N\O)/C(C)=N/O.[Br][Rh][Br]`, which T/C [3] is on record?
Answer: 99 % of control

Question: What about the T/C [14] of the same compound?
Answer: 100 % of control

Question: What about the T/C [8] of the same compound?
Answer: 119 % of control and 92 % of control

Question: What about the T/C [10] of the same compound?
Answer: 110 % of control and 99 % of control and 100 % of control

Question: And the T/C [12]?
Answer: 100 % of control

Question: With `CC1=C(C#N)C(C)(C)C(C#N)=C(C)N1C` as the compound, how does the T/C (dose: 25.0 mg/kg/injection, schedule: Q01DX009 (ip), vehicle: distilled water + Tween-80) read?
Answer: 88 % of control

Question: And the T/C (dose: 50.0 mg/kg/injection, schedule: Q01DX009 (ip), vehicle: distilled water + Tween-80)?
Answer: 100 % of control

Question: And the T/C (dose: 100.0 mg/kg/injection, schedule: Q01DX009 (ip), vehicle: distilled water + Tween-80)?
Answer: 104 % of control

Question: For `O=C(Nc1ccccc1)OCCBr`, which T/C (dose: 50.0 mg/kg/injection, schedule: Q01DX009 (ip), vehicle: saline with Tween-80) is on record?
Answer: 99 % of control

Question: What about the T/C (dose: 100.0 mg/kg/injection, schedule: Q01DX009 (ip), vehicle: saline with Tween-80) of the same compound?
Answer: 107 % of control

Question: And the T/C (dose: 200.0 mg/kg/injection, schedule: Q01DX009 (ip), vehicle: saline with Tween-80)?
Answer: 107 % of control

Question: Which results are given for `Cc1cc2nc(C)c(=O)[nH]c2cc1C`?
Answer: T/C [6]: 100 % of control; T/C [15]: 95 % of control; T/C [7]: 95 % of control; T/C [16]: 95 % of control; T/C [17]: 95 % of control

Question: Which T/C (dose: 50.0 mg/kg/injection, schedule: Q01DX001 (ip), vehicle: saline) does the source give for `CCOC(=O)N(C)C1CCC1NC` (stereo unspecified) here?
Answer: 100 % of control

Question: What about the T/C (dose: 100.0 mg/kg/injection, schedule: Q01DX001 (ip), vehicle: saline) of the same compound?
Answer: 95 % of control

Question: What about the T/C (dose: 200.0 mg/kg/injection, schedule: Q01DX001 (ip), vehicle: saline) of the same compound?
Answer: 95 % of control

Question: With `CCC(=O)NC(N)=S` as the compound, how does the T/C (dose: 12.5 mg/kg/injection, schedule: Q04DX003 (ip), vehicle: Klucel (hydroxypropylcellulose) (HPC)) read?
Answer: 100 % of control

Question: What about the T/C (dose: 25.0 mg/kg/injection, schedule: Q04DX003 (ip), vehicle: Klucel (hydroxypropylcellulose) (HPC)) of the same compound?
Answer: 100 % of control

Question: What about the T/C (dose: 50.0 mg/kg/injection, schedule: Q04DX003 (ip), vehicle: Klucel (hydroxypropylcellulose) (HPC)) of the same compound?
Answer: 100 % of control

Question: Which results are given for `O=C(Nc1cc(C(F)(F)F)ccc1Cl)Nc1cc(C(F)(F)F)c(Cl)cc1S(=O)(=O)O`?
Answer: T/C [13]: 90 % of control; T/C [9]: 109 % of control; T/C [11]: 122 % of control

Question: For `CC1(C)C=C(C(Br)c2cccc(Cl)c2)C(=O)c2ccccc21` (stereo unspecified), which T/C [6] is on record?
Answer: 105 % of control

Question: What about the T/C [15] of the same compound?
Answer: 104 % of control

Question: And the T/C [7]?
Answer: 120 % of control

Question: What about the T/C [16] of the same compound?
Answer: 104 % of control

Question: And the T/C (dose: 400.0 mg/kg/injection, schedule: Q01DX009 (ip), vehicle: Klucel (hydroxypropylcellulose) (HPC))?
Answer: 100 % of control

Question: What about the T/C [17] of the same compound?
Answer: 95 % of control

From PubChem BioAssay AID328 (DTP/NCI, 2004)
